Measurements reported in paper PMC4356482 (Bioorganic & medicinal chemistry letters, 2011).

Key:
Format in all cases: binding
[1] = target: T1, fatty acid synthase I (FAS I) (Mycobacterium tuberculosis, UniProt P95029); test: biochemical
[2] = target: T1, fatty acid synthase I (FAS I); test: STD-NMR
[3] = target: T1, fatty acid synthase I (FAS I); test: STD-NMR, competition titration with PZA

Row | Compound | STD-NMR, competition titration with PZA [3] | further results
1 | NC(=O)c1cnccn1 [PZA, Pyrazinamide] |  | Kd [1]: 70 to 123 µM
2 | C/C=C/C/C=C/CCC(=O)[C@H]1O[C@H]1C(N)=O [Cerulenin] |  | STD-NMR (positive control, 350 μM cerulenin) [2]: displays signals corresponding to cerulenin resonances that are indicative of cerulenin binding to Mtb FAS I
3 | O=C(O)c1cnccn1 [POA, pyrazinoic acid] | although POA binds reversibly to Mtb FAS I it does not compete with PZA since PZA is apparently not displaced | 
4 | NC(=O)C1=CN([C@@H]2O[C@H](COP(=O)(O)OP(=O)(O)OC[C@H]3O[C@@H](n4cnc5c(N)ncnc54)[C@H](OP(=O)(O)O)[C@@H]3O)[C@@H](O)[C@H]2O)C=CC1 [NADPH] | Consistent with the binding of NADPH to Mtb FAS I the intensity of the NADPH resonances increases. | 
